According to ChEMBL document CHEMBL1201862, “PubChem BioAssay data set” (2004):
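Dose response: 5 concentrations. Exposure: 48 h. Format: 96-well plates. Endpoint: linear interpolation; highest concentration if not reached. GI50 is the concentration that inhibits growth by half.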 Activity calls are given as the source filed them. No stated cut-off is given here; in the data, active = GI50 up to about 1.1 µM and inactive = higher.

Key:
Experiment in all cases: inhibition of tumour cell growth, NCI panel, 48 h
[1] = tested on: 786-0
[2] = tested on: A498
[3] = tested on: A549
[4] = tested on: ACHN
[5] = tested on: CCRF-CEM
[6] = tested on: COLO 205
[7] = tested on: DLD-1
[8] = tested on: DMS-114
[9] = tested on: DMS-273
[10] = tested on: EKVX
[11] = tested on: HCC 2998
[12] = tested on: HCT-116
[13] = tested on: HCT-15
[14] = tested on: HL-60
[15] = tested on: HOP-18
[16] = tested on: HOP-62
[17] = tested on: HOP-92
[18] = tested on: HT-29
[19] = tested on: IGROV-1
[20] = tested on: K562
[21] = tested on: KM-20L2
[22] = tested on: LOX IMVI
[23] = tested on: LXFL 529
[24] = tested on: M14
[25] = tested on: M19-MEL
[26] = tested on: MOLT-4
[27] = tested on: Malme-3M
[28] = tested on: NCI-H226
[29] = tested on: NCI-H23
[30] = tested on: NCI-H460
[31] = tested on: NCI-H522
[32] = tested on: OVCAR-3
[33] = tested on: OVCAR-4
[34] = tested on: OVCAR-5
[35] = tested on: OVCAR-8
[36] = tested on: RPMI-8226
[37] = tested on: RXF 393
[38] = tested on: RXF 631
[39] = tested on: SF-268
[40] = tested on: SF-295
[41] = tested on: SF-539
[42] = tested on: SK-MEL-28
[43] = tested on: SK-MEL-2
[44] = tested on: SK-MEL-5
[45] = tested on: SK-OV-3
[46] = tested on: SN12C
[47] = tested on: SNB-19
[48] = tested on: SNB-75
[49] = tested on: SNB-78
[50] = tested on: SR
[51] = tested on: SW-620
[52] = tested on: TK-10
[53] = tested on: U-251
[54] = tested on: UACC-257
[55] = tested on: UACC-62
[56] = tested on: UO-31
[57] = tested on: XF498
[58] = tested on: CAKI-1
[59] = tested on: KM12

Measured: GI50

Cc1cc(NC(=O)C2C3C=CC(O3)C2C(=O)O)no1 (configuration not stated)
inactive: [1] 17.4 µM | [2] 48 µM | [3] 34.8 µM | [4] 39.7 µM | [5] 19.1 µM | [6] 17.7 µM | [7] 24 µM | [8] 15.7 µM | [9] 16.8 µM | [10] > 100 µM | [11] > 100 µM | [12] 17 µM | [14] 23.5 µM | [15] > 100 µM | [16] > 100 µM | [17] > 100 µM | [18] 34.6 µM | [19] > 100 µM | [20] 22.2 µM | [21] 13.7 µM | [22] 14.3 µM | [23] 20.4 µM | [24] > 100 µM | [25] 28.1 µM | [26] 32.6 µM | [27] > 100 µM | [28] > 100 µM | [29] > 100 µM | [30] 31.7 µM | [31] > 100 µM | [32] > 100 µM | [33] 88.1 µM | [34] > 100 µM | [35] 16.2 µM | [36] 16.6 µM | [37] 16.4 µM | [38] 80.5 µM | [39] 24.3 µM | [40] > 100 µM | [41] 24 µM | [42] 97.7 µM | [43] > 100 µM | [44] > 100 µM | [45] > 100 µM | [46] 37.6 µM | [47] > 100 µM | [48] > 100 µM | [49] > 100 µM | [50] 21.8 µM | [51] 1.5 µM | [52] > 100 µM | [53] 21.3 µM | [54] 35 µM | [55] > 100 µM | [56] > 100 µM | [57] > 100 µM
18.5 µM: [13]

COC(=O)C(C(=O)C(=O)NC1=C(Cl)C(=O)c2ccccc2C1=O)c1csc(-n2nc(-c3ccccc3)cc2-c2ccccc2)n1 (configuration not stated)
> 100 µM: [13]
inactive: [1] > 100 µM | [2] > 100 µM | [3] > 100 µM | [4] > 100 µM | [58] > 100 µM | [5] 31 µM | [6] > 100 µM | [7] > 100 µM | [8] 10.2 µM | [9] > 100 µM | [10] 9.66 µM | [11] > 100 µM | [12] > 100 µM | [14] > 100 µM | [15] 13.1 µM | [16] > 100 µM | [17] > 100 µM | [18] 20.7 µM | [19] > 100 µM | [20] 20.9 µM | [21] > 100 µM | [59] > 100 µM | [22] > 100 µM | [23] > 100 µM | [24] > 100 µM | [25] > 100 µM | [26] > 100 µM | [27] 19.1 µM | [28] > 100 µM | [29] > 100 µM | [30] > 100 µM | [31] > 100 µM | [32] > 100 µM | [33] > 100 µM | [34] > 100 µM | [35] > 100 µM | [36] > 100 µM | [37] 34.7 µM | [38] > 100 µM | [39] 24.3 µM | [40] > 100 µM | [45] > 100 µM | [46] > 100 µM | [47] > 100 µM | [48] 1.65 µM | [49] > 100 µM | [50] > 100 µM | [51] > 100 µM | [52] > 100 µM | [53] > 100 µM | [54] > 100 µM | [55] 44.1 µM | [56] 6.08 µM | [57] > 100 µM
